From patent US20260055150A1, “GRAIL-1 PEPTIDE PRODUCTS AND METHODS” (REGENTS OF THE UNIVERSITY OF MICHIGAN, priority 2022, published 2026)
“And” between values parts separate entries of the source, which are not always exact repeats. Identical values can stand only once. “Also recorded” adds a separate entry of the source. Where no end group is shown, it is not given here.

Key:
CpD cells = experiment: Clonogenic survival of mutant p53 driven CpD cells; conditions: for differential activity in reducing clonogenic survival of CpD cells: CpD versus CpA
Procedure: The effects of different siRNAs (e.g., GRAIL Iso1-1, GRAIL Iso1-2, TP53) on clonogenic survival of different BE (CpA, CpD) and EAC (Flo1, OE19, and OE33) cell lines were determined by normalizing the survival fraction of control siRNA-treated group as 1.
For this purpose, two BE cell lines were used, CpA (with wild type p53) and CpD (carrying mutant p53). […] In brief, 3000 cells in 100 μl of complete medium were plated per well in a 96-well plate 24 h prior to peptide treatments. Cells were then either treated with vehicle (dH2O) or serial dilutions of peptides. Two days following treatments MTT labelling reagent was added, and cells were allowed to form formazan crystals for 2 h. Following, 100 μl of solubilizing agent (10% SDS in 0.01M HCl) was added per well, and plates were incubated at 37° C. overnight. The optical density (OD) of the solubilized formazan was spectrophotometrically quantified using a plate reader at 570 nm with a reference at 650 nm. Data represent the mean (±standard error, SE) performed in quadruplicate, and percent cell viabilities are plotted in semi-logarithmic scale relative to water treated control.

[1] = system: chaperone activity (Fluc-DM); experiment: Fluc-DM luciferase reporter of cellular chaperone activity; type: cell-based; conditions: 20 μM peptide, overnight
Procedure: As Frag J/J^m overexpression locks DNAJA1-Hsp70 complex, whether such interactions inhibit chaperone activity was tested. […] To understand the in vivo effects of the Frag J or different peptides in multiple cell lines including BE/EAC and p53 isogenic lines, cells were first transfected/co-transfected with Fluc-DM±Frag J constructs. Twenty-four hours post-transfection, cells were either subjected to luciferase assay or for peptide treatment studies, cells were treated with 20 μM concentrations of different peptides. After overnight incubation, cell lysates were prepared using lysis buffer provided in the luciferase assay kit in Promega luciferase assay system (cat. E1910) followed by standardized protocol as provided by the manufacturer. […] Such observation was confirmed by an in vitro chaperone activity assay using recombinant purified Hsp40-Hsp70 complex (FIG. 6D). In Fluc-DM study, loss of Fluc-DM levels following Frag J/J^m overexpression (FIG. 6E) was noted as shown using immunoblotting. Such effects were independent of p53 mutation status.

mutant p53-R175H = experiment: Immunoblotting of mutant p53 steady state levels in CpD cells; type: cell-based; conditions: CpD cells transfected with DDK-tagged p53R175H; peptides 20 mM for 6 h
Procedure: CpD cells overexpressing mutant p53 were transfected with DDK-tagged p53R175H mutant. Cells were then treated with indicated peptides ([…] for 6 h).
Consequently, the effect of all thirteen peptides on mutant p53 steady state levels was tested.

[2] = system: EAC cells (Flo1, OE19, and OE33); experiment: Cell viability (MTT) of EAC cell lines; type: cell-based
OE19 = OE19 cells
DNAJA1 [3] = experiment: Peptide pull down assay with recombinant DNAJA1; type: binding; conditions: NHS activated Sepharose beads, Western blot
Procedure: Briefly, 1 mg of peptide was dissolved in 1 ml of coupling buffer (0.2 M NaHCO3, 0.5 M NaCl, pH 8.3). Peptides were conjugated to NHS-activated resin by incubating 100 μL NHS bead slurry with 200 μL peptide solution for 2 hours at room temperature (RT). Unbound sites were blocked with quenching buffer (0.5 M ethanolamine, 500 mM NaCl). Resin peptide conjugates were washed once with low pH (0.1 M acetate, 0.5 M NaCl, pH 5) and high pH buffer (0.1 M Tris HCl, pH 8.0) and equilibrated with lysis buffer 50 mM HEPES, 150 mM NaCl, 0.2% NP-40, protease inhibitor cocktail, pH 7.5. Purified HSP40 protein was procured from […] (cat #). Purified protein was diluted in lysis buffer. Approximately 40 nM protein was incubated with peptide coupled to NHS beads and incubated for 2 hours at RT. Unbound proteins were removed by centrifugation and beads were washed with washing buffer (50 mM HEPES, 300 mM NaCl, 0.2% NP-40, pH 7.5). Bound proteins were obtained by boiling beads with 1× Laemmli buffer. […] To confirm, thermal stability assays (TSA) were performed. TSA was carried out using QuantStudio™ 7 Flex Real-Time PCR System. […] The plates were covered with optical foil during the reaction in the thermal cycler. […] The Instrument was programmed in the melt curve mode with ROX reagent detection and Fast speed run. The reporter was selected as Rox and none for quencher. Each melt curve was programmed as follows: 25° C. for 15 sec, followed by increase in temperature at the speed of 0.03° C./s up to 95° C. and finally 95° C. for 15 sec. The raw data was exported to Protein Thermal Shift™ Software (Applied Biosystems) for analysis. Melting temperature was calculated using the melt curve. […] To further test functionality, an in vitro ATPase activity assay was performed using purified Hsp40 and Hsp70 proteins. […] Pep 1 was redesignated “Pep J”.

claudin-1 = target: T1, claudin-1 (Homo sapiens, UniProt O95832); experiment: In vivo fluorescence imaging with RTS*-Cy5.5; parameters: species or system mouse; conditions: after intravenous administration
T1 construct: endogenous in cells; host or cells: colonic PDO implanted in mouse rectum
T1 sequence (O95832 1-211): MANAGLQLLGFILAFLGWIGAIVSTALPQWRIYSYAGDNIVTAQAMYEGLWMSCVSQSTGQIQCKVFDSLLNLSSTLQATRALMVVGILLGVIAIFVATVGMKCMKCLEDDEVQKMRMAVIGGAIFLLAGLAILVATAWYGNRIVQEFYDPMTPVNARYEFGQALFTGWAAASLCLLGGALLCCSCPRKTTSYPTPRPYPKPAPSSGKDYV
Procedure: (A) Photo of is shown of a flexible fiber-coupled side-view confocal endomicroscope. […] Confocal images show claudin-1 expression from (D) dysplasia and (E) normal colonic mucosa with subcellular resolution. Images were collected ˜1 hour post-injection of RTS*-Cy5.5. Crypt structures and individual cells can be identified. Key: crypt (arrow), tight junction (arrowhead), lumen (I), colonocyte (c), goblet cell (g), lamina propria (lp).
This instrument has a diameter of 4.2 mm, which is small enough to perform repetitive in vivo imaging in mouse colon. The focusing optics provide a spatial resolution of 1.2 μm. A rigid wide-field endoscope was used first to collect white light (WL) and NIR fluorescence (FL) images to identify the approximate location of the implanted PDOs. Landmarks defined by the clockwise location of and distance from the anus to the distal tip of the endoscope were used to approximately locate the implanted PDOs for collection of confocal images. Tumor size and volume were estimated using a calibrated gauge passed through the instrument channel of the rigid endoscope. […] Differences in the spatial pattern of target expression between dysplasia and surrounding normal mucosa for colonic PDOs can be seen (FIG. 18D,E).

DNAJA1 [4] = experiment: Thermal stability assay (TSA) with purified DNAJA1; type: binding; conditions: TAT-less peptides, 0-500 μM
Procedure: (§1) Briefly, 1 mg of peptide was dissolved in 1 ml of coupling buffer (0.2 M NaHCO3, 0.5 M NaCl, pH 8.3). Peptides were conjugated to NHS-activated resin by incubating 100 μL NHS bead slurry with 200 μL peptide solution for 2 hours at room temperature (RT). Unbound sites were blocked with quenching buffer (0.5 M ethanolamine, 500 mM NaCl). Resin peptide conjugates were washed once with low pH (0.1 M acetate, 0.5 M NaCl, pH 5) and high pH buffer (0.1 M Tris HCl, pH 8.0) and equilibrated with lysis buffer 50 mM HEPES, 150 mM NaCl, 0.2% NP-40, protease inhibitor cocktail, pH 7.5. Purified HSP40 protein was procured from Boston Scientific (cat #). Purified protein was diluted in lysis buffer. Approximately 40 nM protein was incubated with peptide coupled to NHS beads and incubated for 2 hours at RT. Unbound proteins were removed by centrifugation and beads were washed with washing buffer (50 mM HEPES, 300 mM NaCl, 0.2% NP-40, pH 7.5). Bound proteins were obtained by boiling beads with 1× Laemmli buffer. […] To confirm, thermal stability assays (TSA) were performed. TSA was carried out using QuantStudio™ 7 Flex Real-Time PCR System. […] The plates were covered with optical foil during the reaction in the thermal cycler. […] The Instrument was programmed in the melt curve mode with ROX reagent detection and Fast speed run. […] Melting temperature was calculated using the melt curve. […]

Hsp40-Hsp70 = Hsp40-Hsp70 (Homo sapiens, UniProt P31689); experiment: In vitro Hsp40-Hsp70 ATPase (chaperone) activity assay; type: biochemical; conditions: TAT-less peptides, dose-dependent
Procedure: as §1

Molecule | differential activity in reducing clonogenic survival of CpD cells (CpD cells) | inhibition of chaperone activity (Fluc-DM) [1] | mutant p53-R175H protein levels (mutant p53-R175H) | interaction with purified DNAJA1 in peptide pull down (DNAJA1 [3]) | further results
GRKKRRQRRRPQCKVPPWR [Pep 9] | better differential activity | inhibition of chaperone activity; also recorded: capable of inhibiting chaperone activity | highly effective; also recorded: decrease in mutant p53 levels |  | 
GRKKRRQRRRPQPMCKVPPWRQ [Pep 5] | better differential activity | inhibition of chaperone activity; also recorded: capable of inhibiting chaperone activity | highly effective; also recorded: decrease in mutant p53 levels |  | IC50 (CpD cells; read-out: IC50, clonogenic survival, CpD cells (mutant p53)): 11.2 µM and ~11 µM; effect on EAC cell lines [2]: relatively more resistant; IC50 (OE19): 19.4 µM
CKVPPWR [Pep 28, TAT-less Pep 9] |  |  |  | bound effectively | 
N=C(N)NCCC[C@H](NC(=O)CN)C(=O)N[C@@H](CCCCN)C(=O)N[C@@H](CCCCN)C(=O)N[C@@H](CCCNC(=N)N)C(=O)N[C@@H](CCCNC(=N)N)C(=O)N[C@@H](CCC(N)=O)C(=O)N[C@@H](CCCNC(=N)N)C(=O)N[C@@H](CCCNC(=N)N)C(=O)N[C@@H](CCCNC(=N)N)C(=O)N[C@@H](CCCNC(=N)N)C(=O)N1CCC[C@H]1C(=O)N[C@@H](CCC(N)=O)C(=O)O [Pep 13, GRKKRRQRRRRPQ] |  |  |  |  | cytotoxic effect on either cell type (CpD cells; CpA and CpD cells): least cytotoxic effect
RTS*-Cy5.5: Cy5.5-labeled peptide RTSPSSR, specific for claudin-1 |  |  |  |  | fluorescence intensity from implanted colonic PDO (claudin-1): strong intensity
PMCKCDILKA [Pep 26, TAT-less Pep 1; Frag J amino acids 1-10] |  |  |  | bound effectively | thermal stability assay result with DNAJA1 (DNAJA1 [4]): showed the best result; also recorded: better interactor; inhibition of Hsp40-Hsp70 chaperoning (ATPase) activity (Hsp40-Hsp70): best efficacy; also recorded: most effect agent
